Data published in patent publication US20140135270A1, “MACROCYCLIC COMPOUNDS FOR INHIBITION OF INHIBITORS OF APOPTOSIS” (Ensemble Therapeutics Corp., priority 2012, published 2014).

Experiments:
Assay type in all cases: binding
[1] = target: T1, N-His-Tb-BIR3(241-356, XIAP) (Homo sapiens, UniProt P98170); assay: XIAP-BIR3 SMAC Peptide Fluorescence Polarization Assay (FPA); conditions: fluorescence polarization, fluoresceinated modified SMAC peptide; read-out: BIR3 FPA IC50
T1 construct: additions of N-His-Tb-BIR3(241-356, XIAP), fluoresceinated modified SMAC peptide; Tb (meaning not explained; sits between His tag and BIR3) (N)
Description: A. XIAP-BIR3 SMAC Peptide Fluorescence Polarization Assay (FPA) Assays were performed in black, flat-bottom, 384-well plates. The final assay volume was 50 μL prepared from additions of N-His-Tb-BIR3(241-356, XIAP), fluoresceinated modified SMAC peptide, and test compounds in assay buffer consisting of 20 mM Sodium Phosphate, 1 mM EDTA, 50 mM NaCl, and 0.05% Pluronic F68. The reaction was incubated at room temperature for 60 minutes and fluorescence polarization of the reaction was detected on the LJL Plate Reader. Inhibition data were calculated from mP values generated by the no protein control reactions for 100% inhibition and vehicle-only reactions for 0% inhibition. The final concentration of reagents in the assay was 130 nM N-His-Tb-BIR3(241-356, XIAP), 1.4 nM fluoresceinated modified SMAC peptide, and 1% DMSO. Dose response curves were generated to determine the concentration required for inhibiting 50% of polarization activity (IC50). Compounds were dissolved at 10 mM in dimethylsulfoxide (DMSO) and evaluated at eleven concentrations. IC50 values were derived by non-linear regression analysis.

[2] = target: T2, His-BIR2 (124-240/C202A/C213G) (Homo sapiens, UniProt P98170, C202A/C213G); assay: XIAP-BIR2/SMAC Peptide AlphaScreen Assay; conditions: read-out: BIR2 ALPHA IC50, biotinylated SMAC peptide
T2 construct: additions of His-BIR2 (124-240/C202A/C213G), Biotinylated SMAC peptide
Description: C. XIAP-BIR2/SMAC Peptide AlphaScreen Assay
Assays were performed in white, flat-bottom, 384-well ProxiPlates (Perkin Elmer). […]. The reaction was incubated at room temperature for 60 minutes. After 60 minutes, 2.5 μL of Alphascreen detection reagent (Perkin Elmer) was added to the reaction mixture and incubated at room temperature in the dark for 120 minutes. The Alphascreen signal generated by the reaction was detected on the Envision Plate Reader. Inhibition data were calculated from an Alphascreen signal generated by the no protein control reactions for 100% inhibition and vehicle-only reactions for 0% inhibition. […]
Biotinylated SMAC peptide, 4 μg/mL Alphascreen detection reagents, and 0.5% DMSO. Dose response curves were generated to determine the concentration required for inhibiting 50% of the activity (IC50). Compounds were dissolved at 10 mM in dimethylsulfoxide (DMSO) and evaluated at eleven concentrations. IC50 values were derived by non-linear regression analysis.

His-BIR3 (241-356, XIAP) = target: T3, His-BIR3 (241-356, XIAP) (Homo sapiens, UniProt P98170); assay: XIAP-BIR3/SMAC Homogeneous Time Resolved Fluorescence (HTRF) Assay; conditions: fluorescein labeled SMAC peptide
T3 construct: additions of His-BIR3 (241-356, XIAP), fluorescein labeled SMAC peptide

[3] = target: T4, His-BIR2-3 (125-356, C202A/C213G, XIAP) (Homo sapiens, UniProt P98170, C202A/C213G); assay: XIAP-BIR2-3 Dimeric SMAC Peptide Homogeneous Time Resolved Fluorescence (HTRF) Assay; conditions: fluorescein labeled dimeric SMAC peptide
T4 construct: additions of His-BIR2-3 (125-356, C202A/C213G, XIAP), fluorescein labeled dimeric SMAC peptide
T4 sequence (P98170 125-356 C202A/C213G): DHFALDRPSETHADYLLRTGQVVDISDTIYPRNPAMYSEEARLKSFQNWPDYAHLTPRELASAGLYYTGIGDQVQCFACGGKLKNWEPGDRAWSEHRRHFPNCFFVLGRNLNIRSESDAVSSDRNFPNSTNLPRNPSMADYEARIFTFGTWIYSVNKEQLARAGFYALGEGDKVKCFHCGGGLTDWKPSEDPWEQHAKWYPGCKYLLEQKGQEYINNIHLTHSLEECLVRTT

T3 sequence (P98170 241-356): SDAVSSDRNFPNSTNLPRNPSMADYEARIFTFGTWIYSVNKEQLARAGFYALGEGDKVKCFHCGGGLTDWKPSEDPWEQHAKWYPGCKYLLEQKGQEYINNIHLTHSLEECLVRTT
T1 sequence (P98170 241-356): as above
T2 sequence (P98170 124-240 C202A/C213G): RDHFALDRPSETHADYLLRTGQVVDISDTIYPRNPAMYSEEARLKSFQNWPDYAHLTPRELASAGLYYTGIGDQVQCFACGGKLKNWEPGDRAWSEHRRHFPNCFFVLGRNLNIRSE

In the case of `CNC(C)C(=O)NC(C(=O)N1CC2CC1C(=O)NC(Cc1ccc3ccccc3c1)C(=O)NC(C(=O)O)Cc1ccc(cc1)OCC=CCOC1CC(C(=O)NC(Cc3ccc4ccccc4c3)C(=O)NC(C(=O)NS(C)(=O)=O)Cc3ccc(cc3)OCc3cn2nn3)N(C(=O)C(NC(=O)C(C)NC)C(C)(C)C)C1)C(C)(C)C` (centres unmarked) [Example 5], the IC50 [1] is reported as 50 nM and the IC50 [2] is reported as 71.5 nM.
With `CNC(C)C(=O)NC(C(=O)N1CC2CC1C(=O)NC(Cc1ccc3ccccc3c1)C(=O)NC(C(=O)O)Cc1ccc(cc1)OCCCCOC1CC(C(=O)NC(Cc3ccc4ccccc4c3)C(=O)NC(C(=O)NS(C)(=O)=O)Cc3ccc(cc3)OCc3cn2nn3)N(C(=O)C(NC(=O)C(C)NC)C(C)(C)C)C1)C(C)(C)C` (centres unmarked) [Example 8] the IC50 [1] was 49.6 nM and the IC50 [2] was 190 nM.
With `CN[C@@H](C)C(=O)N[C@H](C(=O)N1C[C@@H]2C[C@H]1C(=O)N[C@@H](Cc1ccc3ccccc3c1)C(=O)N[C@H](C(=O)O)Cc1ccc(cc1)OC/C=C/CO[C@H]1C[C@@H](C(=O)N[C@@H](Cc3ccc(-c4ccc(O)cc4)cc3)C(=O)N[C@H](C(=O)NS(=O)(=O)C3CC3)Cc3ccc(cc3)OCc3cn2nn3)N(C(=O)[C@@H](NC(=O)[C@H](C)NC)C(C)(C)C)C1)C(C)(C)C` [Example 113] the IC50 (His-BIR3 (241-356, XIAP)) was 13.5 nM and the IC50 [3] was 7.1 nM.
`CN[C@@H](C)C(=O)N[C@H](C(=O)N1C[C@@H]2C[C@H]1C(=O)N[C@@H](Cc1ccc3ccccc3c1)C(=O)N[C@H](C(=O)O)Cc1ccc(cc1)OC/C=C/CO[C@H]1C[C@@H](C(=O)N[C@@H](Cc3ccc(-c4cccc(F)c4)cc3)C(=O)N[C@H](C(=O)NS(=O)(=O)C3CC3)Cc3ccc(cc3)OCc3cn2nn3)N(C(=O)[C@@H](NC(=O)[C@H](C)NC)C(C)(C)C)C1)C(C)(C)C` [Example 115] was tested, and the IC50 (His-BIR3 (241-356, XIAP)) was 18.1 nM and the IC50 [3] was 11.1 nM.
Work on `CN[C@@H](C)C(=O)N[C@H](C(=O)N1C[C@@H]2C[C@H]1C(=O)N[C@@H](Cc1ccc3ccccc3c1)C(=O)N[C@H](C(=O)O)Cc1ccc(cc1)OC/C=C/CO[C@H]1C[C@@H](C(=O)N[C@@H](Cc3cccc(-c4cccnc4)c3)C(=O)N[C@H](C(=O)NS(=O)(=O)C3CC3)Cc3ccc(cc3)OCc3cn2nn3)N(C(=O)[C@@H](NC(=O)[C@H](C)NC)C(C)(C)C)C1)C(C)(C)C` [Example 116] yielded an IC50 (His-BIR3 (241-356, XIAP)) of 30.8 nM and an IC50 [3] of 20.1 nM.
With `CN[C@@H](C)C(=O)N[C@H](C(=O)N1C[C@@H]2C[C@H]1C(=O)N[C@@H](Cc1ccc3ccccc3c1)C(=O)N[C@H](C(=O)O)Cc1ccc(cc1)OC/C=C/CO[C@H]1C[C@@H](C(=O)N[C@@H](Cc3cccc(-c4ccc(CO)cc4)c3)C(=O)N[C@H](C(=O)NS(=O)(=O)C3CC3)Cc3ccc(cc3)OCc3cn2nn3)N(C(=O)[C@@H](NC(=O)[C@H](C)NC)C(C)(C)C)C1)C(C)(C)C` [Example 117] the IC50 (His-BIR3 (241-356, XIAP)) was 9.4 nM and the IC50 [3] was 11.3 nM.
In the case of `CN[C@@H](C)C(=O)N[C@H](C(=O)N1C[C@@H]2C[C@H]1C(=O)N[C@@H](Cc1ccc3ccccc3c1)C(=O)N[C@H](C(=O)O)Cc1ccc(cc1)OC/C=C/CO[C@H]1C[C@@H](C(=O)N[C@@H](Cc3ccc4ccccc4c3)C(=O)N[C@H](C(=O)NS(=O)(=O)c3ccccn3)Cc3ccc(cc3)OCc3cn2nn3)N(C(=O)[C@@H](NC(=O)[C@H](C)NC)C(C)(C)C)C1)C(C)(C)C` [Example 118], the IC50 (His-BIR3 (241-356, XIAP)) is reported as 6.3 nM and the IC50 [3] is reported as 1.8 nM.
In the case of `CN[C@@H](C)C(=O)N[C@H](C(=O)N1C[C@@H]2C[C@H]1C(=O)N[C@@H](Cc1ccc3ccccc3c1)C(=O)N[C@H](C(=O)O)Cc1ccc(cc1)CCCC[C@H]1C[C@@H](C(=O)N[C@@H](Cc3ccc4ccccc4c3)C(=O)N[C@H](C(=O)NS(=O)(=O)C3CC3)Cc3ccc(cc3)OCc3cn2nn3)N(C(=O)[C@@H](NC(=O)[C@H](C)NC)C(C)(C)C)C1)C(C)(C)C` [Example 119], the IC50 (His-BIR3 (241-356, XIAP)) is reported as 2.8 nM and the IC50 [3] is reported as 3.4 nM.
Molecule `CN[C@@H](C)C(=O)N[C@H](C(=O)N1C[C@@H]2C[C@H]1C(=O)N[C@@H](Cc1ccc3ccccc3c1)C(=O)N[C@H](C(=O)O)Cc1ccc(cc1)OCCCCO[C@H]1C[C@@H](C(=O)N[C@@H](Cc3ccc4ccccc4c3)C(=O)N[C@H](C(=O)NS(=O)(=O)C3CC3)Cc3ccc(cc3)OCc3cn2nn3)N(C(=O)[C@@H](NC(=O)[C@H](C)NC)C(C)(C)C)C1)C(C)(C)C` [Example 120] has an IC50 (His-BIR3 (241-356, XIAP)) of 42 nM and an IC50 [3] of 8 nM.
`CN[C@@H](C)C(=O)N[C@H](C(=O)N1C[C@@H]2C[C@H]1C(=O)N[C@@H](Cc1ccc3ccccc3c1)C(=O)N[C@H](C(=O)O)Cc1ccc(cc1)OCc1cn(nn1)[C@H]1C[C@@H](C(=O)N[C@@H](Cc3ccc4ccccc4c3)C(=O)N[C@H](C(=O)O)Cc3ccc(cc3)OCCCCO2)N(C(=O)[C@@H](NC(=O)[C@H](C)NC)C(C)(C)C)C1)C(C)(C)C` [Example 121] showed an IC50 (His-BIR3 (241-356, XIAP)) of 11.6 nM and an IC50 [3] of 7.9 nM.
`CN[C@@H](C)C(=O)N[C@H](C(=O)N1C[C@@H]2C[C@H]1C(=O)N[C@@H](Cc1ccc3ccccc3c1)C(=O)N[C@H](C(=O)O)Cc1ccc(cc1)OCc1cn(nn1)[C@H]1C[C@@H](C(=O)N[C@@H](Cc3ccc4ccccc4c3)C(=O)N[C@H](C(=O)NS(=O)(=O)C3CC3)Cc3ccc(cc3)OCCCCO2)N(C(=O)[C@@H](NC(=O)[C@H](C)NC)C(C)(C)C)C1)C(C)(C)C` [Example 122] showed an IC50 (His-BIR3 (241-356, XIAP)) of 12.9 nM and an IC50 [3] of 11.3 nM.
Work on `CN[C@@H](C)C(=O)N[C@H](C(=O)N1C[C@@H]2C[C@H]1C(=O)N[C@@H](Cc1ccc3ccccc3c1)C(=O)N[C@H](C(=O)O)Cc1ccc(cc1)OCc1cn(nn1)[C@H]1C[C@@H](C(=O)N[C@@H](Cc3ccc4ccccc4c3)C(=O)N[C@H](C(=O)NS(=O)(=O)C3CC3)Cc3ccc(cc3)OCCCCO2)N(C(=O)[C@@H](NC(=O)[C@H](C)NC)C(C)(C)C)C1)C(C)(C)C` [Example 123] yielded an IC50 (His-BIR3 (241-356, XIAP)) of 7.8 nM and an IC50 [3] of 5.4 nM.
`CN[C@@H](C)C(=O)N[C@H](C(=O)N1C[C@@H]2C[C@H]1C(=O)N[C@@H](Cc1ccc3ccccc3c1)C(=O)N[C@H](C(=O)O)Cc1ccc(cc1)OCc1cn(nn1)[C@H]1C[C@@H](C(=O)N[C@@H](Cc3ccc4ccccc4c3)C(=O)N[C@H](C(=O)NS(C)(=O)=O)Cc3ccc(cc3)OCCCCO2)N(C(=O)[C@@H](NC(=O)[C@H](C)NC)C(C)(C)C)C1)C(C)(C)C` [Example 124] showed an IC50 (His-BIR3 (241-356, XIAP)) of 19.4 nM and an IC50 [3] of 13.6 nM.
`CN[C@@H](C)C(=O)N[C@H](C(=O)N1C[C@@H]2C[C@H]1C(=O)N[C@@H](Cc1ccc3ccccc3c1)C(=O)N[C@H](C(=O)O)Cc1ccc(cc1)OCCCCO[C@H]1C[C@@H](C(=O)N[C@@H](Cc3ccc4ccccc4c3)C(=O)N[C@H](C(=O)NS(=O)(=O)c3ccccn3)Cc3ccc(cc3)OCc3cn2nn3)N(C(=O)[C@@H](NC(=O)[C@H](C)NC)C(C)(C)C)C1)C(C)(C)C` [Example 125] gave an IC50 (His-BIR3 (241-356, XIAP)) of 3.7 nM and an IC50 [3] of 2.7 nM.
For `CN[C@@H](C)C(=O)N[C@H](C(=O)N1C[C@@H]2C[C@H]1C(=O)N[C@@H](Cc1ccc3ccccc3c1)C(=O)N[C@H](C(=O)O)Cc1ccc(cc1)CCCCO[C@H]1C[C@@H](C(=O)N[C@@H](Cc3ccc4ccccc4c3)C(=O)N[C@H](C(=O)NS(=O)(=O)C3CC3)Cc3ccc(cc3)OCc3cn2nn3)N(C(=O)[C@@H](NC(=O)[C@H](C)NC)C(C)(C)C)C1)C(C)(C)C` [Example 127], the IC50 (His-BIR3 (241-356, XIAP)) was 7.5 nM and the IC50 [3] was 7.1 nM.
Work on `CN[C@@H](C)C(=O)N[C@H](C(=O)N1C[C@@H]2C[C@H]1C(=O)N[C@@H](Cc1ccc3ccccc3c1)C(=O)N[C@H](C(=O)O)Cc1ccc(cc1)OCc1cn(nn1)[C@H]1C[C@@H](C(=O)N[C@@H](Cc3ccc4ccccc4c3)C(=O)N[C@H](c3nnn[nH]3)Cc3ccc(cc3)OCCCCO2)N(C(=O)[C@@H](NC(=O)[C@H](C)NC)C(C)(C)C)C1)C(C)(C)C` [Example 128] yielded an IC50 (His-BIR3 (241-356, XIAP)) of 5.5 nM and an IC50 [3] of 3.3 nM.
